Read-outs that look alike come from different tables or passages of the source.
Assays:
[1] = biological target: 3CLpro of MERS-CoV (Middle East respiratory syndrome-related coronavirus, UniProt K9N7C7); assay: biochemical; format: biochemical
[2] = biological target: T1, 3CLpro of SARS-CoV-2 (Severe acute respiratory syndrome coronavirus 2, UniProt P0DTD1); assay: biochemical; format: biochemical
T1 construct: The codon-optimized cDNA of full length of 3CLpro of SARS-CoV-2; 6xHis (N); made in house; pET-28a(+) vector (points to E. coli, my inference)

[3] = Nonspecific cytotoxic effects (CC50), CytoTox 96 kit
[4] = test system: HG23 cells
[5] = biological target: NV 3CLpro (Norovirus, UniProt Q83883); assay: biochemical; format: biochemical; conditions: read-out: IC50 (μM) ± SD
[6] = test system: NV in the replicon harboring cells (HG23 cells); assay: microbe, parasite or virus in culture; format: cell-based, norovirus (NV); conditions: read-out: EC50 (μM) ± SD
[7] = biological target: 3CLpro of SARS-CoV (Severe acute respiratory syndrome coronavirus, UniProt P0C6X7); format: biochemical; conditions: read-out: IC50 in enzyme assay (μM) SARS-CoV
[8] = test system: MERS-CoV; assay: microbe, parasite or virus in culture; format: cell-based
[9] = test system: MHV-1; assay: microbe, parasite or virus in culture; format: cell-based, mouse hepatitis virus (MHV); conditions: Murine coronavirus, read-out: EC50 in cell culture (μM) MHV
[10] = test system: FIPV; assay: microbe, parasite or virus in culture; format: cell-based; conditions: Alphacoronavirus 1, CRFK, read-out: EC50 in cell culture (μM) FIPV
[11] = test system: Huh-7, CRFK or CCL1 cells; assay: Nonspecific cytotoxic effects (CC50), CytoTox 96 kit; conditions: Huh-7, CRFK, or CCL1 cells, Table 7
[12] = read-out: MERS-CoV IC50 (uM) enzyme
[13] = read-out: MERS-CoV IC50(μM) Enzyme
[14] = read-out: IC50 in enzyme assay (μM) MERS-CoV
[15] = Huh-7, CRFK or CCL1 cells (confluent, 96-well plates)

3CLpro of MERS-CoV, sequence (K9N7C7 3248-3553 limits assumed): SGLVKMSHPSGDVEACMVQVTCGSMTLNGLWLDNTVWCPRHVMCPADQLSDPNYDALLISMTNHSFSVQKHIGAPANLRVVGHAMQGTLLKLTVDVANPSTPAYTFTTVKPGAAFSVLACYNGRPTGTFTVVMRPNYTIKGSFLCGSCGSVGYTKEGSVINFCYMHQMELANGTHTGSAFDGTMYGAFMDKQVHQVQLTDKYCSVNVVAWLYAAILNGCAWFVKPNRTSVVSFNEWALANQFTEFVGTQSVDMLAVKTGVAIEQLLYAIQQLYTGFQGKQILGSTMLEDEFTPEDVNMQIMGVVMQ
NV 3CLpro, sequence (Q83883 1101-1281): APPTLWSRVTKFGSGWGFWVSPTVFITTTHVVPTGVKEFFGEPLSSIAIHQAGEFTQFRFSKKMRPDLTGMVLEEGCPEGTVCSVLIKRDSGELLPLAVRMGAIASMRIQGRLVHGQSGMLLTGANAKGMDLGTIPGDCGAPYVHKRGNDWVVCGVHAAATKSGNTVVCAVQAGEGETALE

CC(C)C[C@H](NC(=O)OC1CCC(C)(C)CC1)C(=O)N[C@@H](C[C@@H]1CCNC1=O)C(O)S(=O)(=O)O (stereo partly drawn) [Compound 1c, Sodium (2S)-2-((S)-2-((((4,4-dimethylcyclohexyl)oxy)carbonyl)amino)-4-methylpentan amido)-1-hydroxy-3-((S)-2-oxopyrrolidin-3-yl)propane-1-sulfonate]
IC50 [1]: 0.09 µM | IC50 ([2]; read-out: IC50): 240 nM | CC50 at 72 h [3]: > 100000 nM

CC(C)(OC(=O)N[C@@H](CC1CCCCC1)C(=O)N[C@H](C=O)C[C@@H]1CCNC1=O)c1cccc(Cl)c1 [Compound 5a (Scheme 2)]
IC50 [1, 12]: 11.5 µM | CC50 [4]: > 100000 nM | IC50 [5]: 2.9 ± 0.9 µM | EC50 [6]: 3.7 ± 2.3 µM

CC(C)(COC(=O)N[C@@H](CC1CCCCC1)C(=O)N[C@H](C=O)C[C@@H]1CCNC1=O)c1cccc(Cl)c1 [Compound 5d (Scheme 2)]
IC50 [1, 13]: 1.9 µM | CC50 [4]: 13300 ± 1270 nM | IC50 [5]: 0.23 ± 0.04 µM | EC50 [6]: 0.07 ± 0.01 µM

CC(C)C[C@H](NC(=O)OCC(C)(C)c1ccccc1)C(=O)N[C@H](C=O)C[C@@H]1CCNC1=O [Compound 5f (Scheme 2)]
IC50 [1, 13]: 0.8 µM | CC50 [4]: > 100000 nM | IC50 [5]: 0.45 ± 0.07 µM | EC50 [6]: 0.65 ± 0.07 µM

CC(C)(Cc1cccc(Cl)c1)OC(=O)N[C@@H](CC1CCCCC1)C(=O)N[C@H](C=O)C[C@@H]1CCNC1=O [Compound 5h (Scheme 2)]
IC50 [1, 12]: > 10 µM | CC50 [4]: 15600 ± 1800 nM | IC50 [5]: 7.7 ± 1.7 µM | EC50 [6]: 5.4 ± 1.1 µM

CC(C)C[C@H](NC(=O)OC(C)(C)Cc1cccc(Cl)c1)C(=O)N[C@H](C=O)C[C@@H]1CCNC1=O [Compound 5i (Scheme 2)]
IC50 [1, 12]: 1.1 µM | CC50 [4]: > 100000 nM | IC50 [5]: 1.2 ± 0.5 µM | EC50 [6]: 0.9 ± 0.21 µM

O=C[C@H](C[C@@H]1CCNC1=O)NC(=O)[C@H](CC1CCCCC1)NC(=O)OCCCc1cccc(Cl)c1 [Compound 5j (Example 5)]
CC50 [4]: 30300 ± 2830 nM | EC50 [6]: 0.08 ± 0.01 µM

CC(C)C[C@H](NC(=O)OCCCc1ccccc1)C(=O)N[C@H](C=O)C[C@@H]1CCNC1=O [Compound 5m]
CC50 [4]: > 100000 nM | IC50 [5]: 0.75 ± 0.07 µM | EC50 [6]: 0.77 ± 0.06 µM

CC(C)C[C@H](NC(=O)OCCCc1cccc(Cl)c1)C(=O)N[C@H](C=O)C[C@@H]1CCNC1=O [Compound 5n]
CC50 [4]: > 100000 nM | IC50 [5]: 0.26 ± 0.08 µM | EC50 [6]: 0.16 ± 0.06 µM

CC(C)C[C@H](NC(=O)OCC(C)(C)Cc1cccc(Cl)c1)C(=O)N[C@H](C=O)C[C@@H]1CCNC1=O [Compound 5o]
CC50 [4]: > 100000 nM | EC50 [6]: 0.14 ± 0.04 µM

CC(C)C[C@H](NC(=O)OCCCc1ccccc1)C(=O)N[C@@H](C[C@@H]1CCNC1=O)C(O)S(=O)(=O)O (some centres unmarked) [Compound 6m]
CC50 [4]: > 100000 nM | IC50 [5]: 0.6 ± 0.14 µM | EC50 [6]: 0.85 ± 0.07 µM

CC(C)C[C@H](NC(=O)OCCCc1cccc(Cl)c1)C(=O)N[C@@H](C[C@@H]1CCNC1=O)C(O)S(=O)(=O)O (some centres unmarked) [Compound 6n]
CC50 [4]: > 100000 nM | IC50 [5]: 0.19 ± 0.06 µM | EC50 [6]: 0.09 ± 0.01 µM

CC(C)C[C@H](NC(=O)OCC(C)(C)Cc1cccc(Cl)c1)C(=O)N[C@@H](C[C@@H]1CCNC1=O)C(O)S(=O)(=O)O (some centres unmarked) [Compound 6o]
CC50 [4]: > 100000 nM | IC50 [5]: 0.16 ± 0.03 µM | EC50 [6]: 0.15 ± 0.08 µM

O=C(N[C@@H](CC1CCCCC1)C(=O)N[C@@H](C[C@@H]1CCNC1=O)C(O)S(=O)(=O)O)OC1(c2cccc(Cl)c2)CC1 (some centres unmarked) [Compound 6q]
CC50 [4]: 42300 ± 15600 nM | IC50 [5]: 0.27 ± 0.04 µM | EC50 [6]: 0.18 ± 0.04 µM

CC(C)C[C@H](NC(=O)OC1(c2cccc(Cl)c2)CC1)C(=O)N[C@@H](C[C@@H]1CCNC1=O)C(O)S(=O)(=O)O (some centres unmarked) [Compound 6r]
CC50 [4]: > 100000 nM | IC50 [5]: 0.25 ± 0.08 µM | EC50 [6]: 0.55 ± 0.08 µM

O=C(N[C@@H](CC1CCCCC1)C(=O)N[C@@H](C[C@@H]1CCNC1=O)C(O)S(=O)(=O)O)OC/C=C/c1cccc(Cl)c1 (some centres unmarked) [Compound 6s]
CC50 [4]: 28300 ± 2800 nM | IC50 [5]: 0.16 ± 0.01 µM | EC50 [6]: 0.07 ± 0.02 µM

CC(C)C[C@H](NC(=O)OC/C=C/c1cccc(Cl)c1)C(=O)N[C@@H](C[C@@H]1CCNC1=O)C(O)S(=O)(=O)O (some centres unmarked) [Compound 6t]
CC50 [4]: > 100000 nM | IC50 [5]: 0.11 ± 0.02 µM | EC50 [6]: 0.08 ± 0.02 µM

CC(C)C[C@H](NC(=O)OC1CCC(F)(F)CC1)C(=O)N[C@@H](C[C@@H]1CCNC1=O)C(O)S(=O)(=O)[O-].[Na+] (stereo partly drawn) [Compound 7h (Scheme 1), sodium (2S)-2-((S)-2-((((4,4-difluorocyclohexyl)oxy)carbonyl)amino)-4-methylpentan-amido)-1-hydroxy-3-((S)-2-oxopyrrolidin-3-yl)propane-1-sulfonate]
IC50 [7]: 2.2 µM | IC50 [1, 14]: 0.08 µM | EC50 values against MERS-CoV in cell culture (in words) [8]: submicromolar | EC50 ([8]; Middle East respiratory syndrome-related coronavirus, Huh-7, read-out: EC50 in cell culture (μM) MERS-CoV): 0.21 µM | EC50 [9]: 0.11 µM | EC50 [10]: 0.12 µM | CC50 at 72 h [3, 15]: > 100000 nM

CC(C)C[C@H](NC(=O)OCC1CCC(F)(F)CC1)C(=O)N[C@@H](C[C@@H]1CCNC1=O)C(O)S(=O)(=O)O (stereo partly drawn) [Compound 7j (Scheme 1), sodium (2S)-2-((S)-2-((((4,4-difluorocyclohexyl)methoxy)carbonyl)amino)-4-methylpentan-amido)-1-hydroxy-3-((S)-2-oxopyrrolidin-3-yl)propane-1-sulfonate]
IC50 [7]: 1.1 µM | IC50 [1, 14]: 0.1 µM | EC50 [9]: 0.16 µM | EC50 [10]: 0.07 µM | CC50 at 72 h [3, 15]: > 100000 nM

CCCCCC(=O)OC([C@H](C[C@@H]1CCNC1=O)NC(=O)[C@H](CC1CCCCC1)NC(=O)OCC(C)(C)Cc1cccc(Cl)c1)S(=O)(=O)O (some centres unmarked) [Compound 7l]
CC50 [4]: 20700 ± 4030 nM | EC50 [6]: 0.08 ± 0.02 µM

CCCC1CCC(COC(=O)NC(CC(C)C)C(=O)NC(CC2CCNC2=O)C(O)S(=O)(=O)O)CC1 [Compound 8c, Sodium (2S)-1-hydroxy-2-((S)-4-methyl-2-(((((1r,4R)-4-propylcyclohexyl)methoxy)carbonyl)amino)pentanamido)-3-(2-oxopyrrolidin-3-yl) propane-1-sulfonate]
IC50 [1]: 0.11 µM | IC50 [2]: 210 nM | CC50 at 72 h [3]: > 100000 nM

CC(C)C[C@H](NC(=O)OC(C)C1CCC(F)(F)CC1)C(=O)N[C@@H](C[C@@H]1CCNC1=O)C(O)S(=O)(=O)O (stereo partly drawn) [Compound 12c, Sodium (2S)-2-((2S)-2-(((1-(4,4-difluorocyclohexyl)ethoxy)carbonyl)amino)-4-methylpentan amido)-1-hydroxy-3-((S)-2-oxopyrrolidin-3-yl)propane-1-sulfonate]
IC50 [1]: 0.12 µM | IC50 [2]: 200 nM | CC50 at 72 h [3]: > 100000 nM

CC(C)C[C@H](NC(=O)OC(Cc1ccccc1)C1CCC(F)(F)CC1)C(=O)N[C@@H](C[C@@H]1CCNC1=O)C(O)S(=O)(=O)O (stereo partly drawn) [Compound 14c, Sodium (2S)-2-((2S)-2-(((1-(4,4-difluorocyclohexyl)-2-phenylethoxy)carbonyl)amino)-4-methylpentanamido)-1-hydroxy-3-((S)-2-oxopyrrolidin-3-yl)propane-1-sulfonate]
IC50 [1]: 0.16 µM | IC50 [2]: 220 nM | CC50 at 72 h [3]: > 100000 nM

CC(C)C[C@H](NC(=O)OCc1cccc(F)c1)C(=O)N[C@@H](C[C@@H]1CCNC1=O)C(O)S(=O)(=O)O (stereo partly drawn) [Compound 18c, Sodium (2S)-2-((S)-2-((((3-fluorobenzyl)oxy)carbonyl)amino)-4-methylpentanamido)-1-hydroxy-3-((S)-2-oxopyrrolidin-3-yl)propane-1-sulfonate]
IC50 [1]: 0.08 µM | IC50 [2]: 310 nM | CC50 at 72 h [3]: > 100000 nM

CC(C)C[C@H](NC(=O)OCc1c(F)c(F)c(F)c(F)c1F)C(=O)N[C@@H](CC1CCNC1=O)C(O)S(=O)(=O)O (stereo partly drawn) [Compound 21c, Sodium (2S)-1-hydroxy-2-((S)-4-methyl-2-((((perfluorophenyl)methoxy)carbonyl)amino)pentanamido)-3-(2-oxopyrrolidin-3-yl) propane-1-sulfonate]
IC50 [1]: 0.07 µM | CC50 at 72 h [3]: > 100000 nM

((1s,4S)-4-Propylcyclohexyl) methyl-d2 ((2S)-4-methyl-1-oxo-1-(((2S)-1-oxo-3-(2-oxopyrrolidin-3-yl) propan-2-yl) amino) pentan-2-yl) carbamate [Compound 9b]
CC50 [11]: > 100000 nM

Sodium (2S)-1-hydroxy-2-((S)-4-methyl-2-(((((1s,4S)-4-propylcyclohexyl) methoxy-d2) carbonyl) amino) pentanamido)-3-(2-oxopyrrolidin-3-yl) propane-1-sulfonate [Compound 9c]
CC50 [11]: > 100000 nM

Sodium (2S)-1-hydroxy-2-((S)-4-methyl-2-(((((1s,4S)-4-propylcyclohexyl)oxy)carbonyl) amino)pentanamido)-3-((S)-2-oxopyrrolidin-3-yl)propane-1-sulfonate [Compound 3c]
CC50 [11]: > 100000 nM

Sodium (2S)-2-((S)-2-((((4,4-difluorocyclohexyl) methoxy-d2) carbonyl) amino)-4-methylpentanamido)-1-hydroxy-3-(2-oxopyrrolidin-3-yl) propane-1-sulfonate [Compound 11c]
CC50 [11]: > 100000 nM
